Data as given in patent US9034895B2, “Composition and methods for treating glioblastoma” (University of Washington Through its Center for …, priority 2010, dated 2015).

Tests used:
T98g cells = assay: Cell viability assay (WST-1), toxic potency and efficacy at T98g cells; type: cell-based; settings: Homo sapiens, 72 h; for Emax: read-out: Toxic potency at T98g cells (percent efficacy); for EC50: read-out: Toxic potency at T98g cells potency μM; for cytotoxicity at 10 µM: read-out: Activity at killing T98g cells percent efficacy at 10 μM
Protocol: (§1) Cells were plated media supplemented with 10% serum in 96-well plates (10^4 cells per wellI; 0.1 ml per well). Once they reached ˜70% confluence, they were rinsed with PBS and kept for an additional 24 hrs in media supplemented with 1% serum, at which time drugs or vehicle (DMSO, 0.1%, prepared in 10 μl serum-free media) were directly added to each well. After 3 days, cell viability was assessed using the Cell Proliferation Reagent WST-1 (Roche, Indianapolis, Ind.). Briefly, WST-1 reagent (10 μl) was added to each well for 3 hrs at 37° C. with 5% CO2 and WST-1 products were read at 450 nm using Packard SpectraCount™.
Because the strongest toxic effect of WIN55212-2 was measured in T98g cells, these cells are used as readout to study the structure activity relationship (SAR) of AAI compounds at inducing cell death through AAI receptors.

[1] = tested on: T98g, MDA231 and sknmc cells; assay: Cell viability assay, killing of CB1/CB2-lacking cell lines; type: cell-based, human; settings: for potencies and efficacies at killing T98g, MDA231 and sknmc cells: in words
Protocol: as §1
The expression level of CB1 and CB2 mRNA is determined by qPCR in eight human cell lines and found three, T98g, MDA231 and sknmc cells, that lack CB1 and CB2 mRNA (Table 1).
Based on this evidence, it was determined if WIN55212-2 differentially kills T98g, MDA231 and sknmc cells, which provides an index of AAI receptor functionality in these cells. Also tested is Δ^9-THC (classic cannabinoid) and CP55940 (non-classical cannabinoid).

[2] = tested on: protein expressed by NG108-15 cells; settings: cited from earlier work
[3] = tested on: hippocampal slices prepared from CB1−/− mice; settings: blocked by capsazepine; cited from earlier work
CB2 = molecular target: T1, CB2 (Mus musculus, UniProt P47936); assay: Radioligand competition binding, [3H]-CP55940, CB2-expressing HEK293 membranes; settings: FIG. 2
T1 construct: plasmids containing full coding region of mouse CB1 and CB2; expressed in transfected cells
T1 sequence (P47936 whole entry): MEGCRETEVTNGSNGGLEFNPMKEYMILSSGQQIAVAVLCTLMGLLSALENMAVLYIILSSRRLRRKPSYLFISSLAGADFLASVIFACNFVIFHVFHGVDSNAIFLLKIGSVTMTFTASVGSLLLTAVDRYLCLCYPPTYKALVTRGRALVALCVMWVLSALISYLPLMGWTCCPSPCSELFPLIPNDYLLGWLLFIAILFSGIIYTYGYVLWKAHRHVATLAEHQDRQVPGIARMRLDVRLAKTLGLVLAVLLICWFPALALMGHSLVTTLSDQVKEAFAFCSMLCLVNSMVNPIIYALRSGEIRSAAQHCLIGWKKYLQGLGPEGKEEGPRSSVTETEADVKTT
Protocol: (§2) Stable CB1 and CB2 expressing HEK293 cell lines were generated using plasmids containing full coding region of mouse CB1 and CB2.
(§3) Fragments were amplified from total RNA of cell lines by reverse transcriptase-polymerase chain reaction (RT-PCR). Sequence was confirmed and the fragment was cloned into the EcoRI site of the pIRES2-eGFP-express vector. Cells were grown to approximately 80% confluence in 10 cm cell culture dishes, transfected with the cDNA pIRES-eGFP-vector containing the murine CB1 or CB2 receptor using LipofectAMINE™ 2000 reagent in the serum-free media Opti-MEM 1 according to the manufacturer's description. Cells were subject to FACS sorting 48 h after transfection and single cell sorted based on dsRed expression into 96-well plates. Of the dsRed expressing positive clones, 3 were validated for CB1 and CB2 protein expression by radioligand binding analysis (methods discussed below).
(§4) Cells were grown to 90% confluence, rinsed twice with 1×PBS and stored at −80° C. until further use. To prepare crude cellular membrane fractions, dishes were removed from −80° C. and thawed at room temperature for 5 min. Once thawed, cells were lysed with ice-cold homogenization buffer (50 mM Tris, 1 mM EDTA, 3 mM MgCl2) and gently scraped from the dish. Total cell lysates from 3-5 dishes were collected on ice in 3 ml of ice-cold homogenization buffer. Cells were homogenized at 6,500 rpm (PRO Scientific, Oxford, Conn.) twice for 10 sec and centrifuged at 11,500 rpm for 20 min at 4° C. Supernatants were discarded and cell pellets were resuspended in homogenization buffer and triturated 10 times in ice-cold homogenization buffer. Crude cellular membrane homogenates were stored at −80° C. until further use. On the day of experiments, frozen homogenates were thawed at room temperature, gently triturated 10 times and subsequently dounce homogenized in a 7 ml glass tissue grinder (Wheaton Science Products, Millville, N.J.) by 5 strokes while on ice. […]

CB1 = molecular target: T2, CB1 (Mus musculus, UniProt P47746); assay: Radioligand competition binding, [3H]-CP55940, CB1-expressing HEK293 membranes; settings: FIG. 2 (CB1 not shown)
T2 construct: plasmids containing full coding region of mouse CB1 and CB2; expressed in transfected cells
T2 sequence (P47746 whole entry): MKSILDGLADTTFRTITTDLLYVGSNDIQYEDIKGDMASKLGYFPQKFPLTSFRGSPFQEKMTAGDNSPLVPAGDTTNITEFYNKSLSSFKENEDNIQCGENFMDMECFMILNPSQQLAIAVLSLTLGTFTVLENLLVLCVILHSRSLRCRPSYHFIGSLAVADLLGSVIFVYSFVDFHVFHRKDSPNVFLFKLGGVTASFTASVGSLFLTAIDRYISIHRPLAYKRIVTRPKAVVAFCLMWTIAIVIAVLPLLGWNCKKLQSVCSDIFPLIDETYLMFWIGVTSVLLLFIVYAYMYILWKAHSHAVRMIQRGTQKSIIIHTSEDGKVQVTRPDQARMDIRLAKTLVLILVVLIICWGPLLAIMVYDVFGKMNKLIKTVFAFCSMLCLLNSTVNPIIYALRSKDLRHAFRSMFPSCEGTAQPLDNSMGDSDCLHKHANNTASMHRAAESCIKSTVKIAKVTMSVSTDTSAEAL
Protocol: as §2, §3, §4

[4] = tested on: homogenates prepared from CB1−/− mice cerebellum; settings: insensitive to SR144528; cited from earlier work

| SMILES | Emax (T98g cells) | EC50 (T98g cells) | cytotoxicity at 10 µM (T98g cells) | also measured |
| --- | --- | --- | --- | --- |
| Cc1ccc(C(=O)c2c(C)n(CCN3CCOCC3)c3ccc(Cl)cc23)c2ccccc12 [CBX-002, (5-chloro-2-methyl-1-(2-morpholino ethyl)-1H-indol-3-yl)(4-methylnaphthalen-1-yl)methanone] | 45% | 30 µM |  |  |
| Cc1ccc(C(=O)c2c(C)n(CCN3CCOCC3)c3ncccc23)c2ccccc12 [CBX-003, (2-methyl-1-(2-morpholino ethyl)-1H-pyrrolo[2,3-b]pyridin-3-yl)(4-methylnaphthalen-1-yl)methanone] | 71% | 5 µM |  |  |
| Cc1ccc(C(=O)c2c(C)n(CCN3CCOCC3)c3cc(Cl)ccc23)c2ccccc12 [CBX-004, (6-chloro-2-methyl-1-(2-morpholinoethyl)-1H-indol-3-yl)(4-methylnaphthalen-1-yl)methanone] | 68% | 2 µM |  |  |
| Cc1ccc(C(=O)c2c3n(c4ccccc24)CCCC3)c2ccccc12 [CBX-005, (4-methylnaphthalen-1-yl)(6,7,8,9-tetrahydropyrido[1,2-a]indol-10-yl)methanone] | 64% | 1.2 µM |  |  |
| Cc1ccc(C(=O)c2c(C)n(CCN3CCOCC3)c3cc(Cl)cc(Cl)c23)c2ccccc12 [CBX-007, (4,6-dichloro-2-methyl-1-(2-morpholino ethyl)-1H-indol-3-yl)(4-methylnaphthalen-1-yl)methanone] | 56% | 0.6 µM |  |  |
| CCCCCCC(C)(C)c1ccc([C@@H]2C[C@H](O)CC[C@H]2CCCO)c(O)c1 [CP55940] |  |  |  | potencies and efficacies at killing T98g, MDA231 and sknmc cells [1]: inconsistent potencies and efficacies; competition for WIN-2 binding in NG108-15 cells [2]: did not compete |
| CCCn1c(C)c(C(=O)c2cccc3ccccc23)c2ccccc21 [JWH-015, (2-methyl-1-propyl-1H-indol-3-yl)(naphthalen-1-yl)methanone] | 58% | 1.3 µM |  |  |
| Cc1c(C(=O)c2cccc3ccccc23)c2ccccc2n1C [JWH-042] | 71% | 3.1 µM |  |  |
| CCn1c(C)c(C(=O)c2cccc3ccccc23)c2ccccc21 [JWH-043] | 84% | 6.9 µM |  |  |
| CCCn1cc(C(=O)c2ccc(C)c3ccccc23)c2ccccc21 [JWH-120] |  |  | 0% |  |
| CCCn1c(C)c(C(=O)c2ccc(C)c3ccccc23)c2ccccc21 [JWH-148] | 48% | 2 µM |  |  |
| O=C(c1cccc2ccccc12)c1cn(CCN2CCOCC2)c2ccccc12 [JWH-200] | 48% | 21 µM |  |  |
| CCCCCn1cc(C(=O)c2cccc3ccccc23)cc1-c1cc(C)cc(O)c1 [JWH-370] |  |  | 11% |  |
| Cc1ccc(C(=O)c2c(C)n(C)c3ccccc23)c2ccccc12 [JWH-450, (1,2-dimethyl-1H-indol-3-yl)(4-methylnaphthalen-1-yl)methanone] | 66% | 2 µM |  |  |
| COc1ccc(C(=O)c2c(C)n(CCN3CCOCC3)c3ccccc23)cc1 [Pravadoline] | 88% | 22 µM |  |  |
| CCCCCc1cc(O)c2c(c1)OC(C)(C)[C@@H]1CCC(C)=C[C@@H]21 [THC] |  |  |  | potencies and efficacies at killing T98g, MDA231 and sknmc cells [1]: inconsistent potencies and efficacies |
| Cc1nccn1CC1CCc2c(c3ccccc3n2C)C1=O (centres unmarked) [TK3] |  |  | 11% |  |

| SMILES | Emax (T98g cells) | EC50 (T98g cells) | cytotoxicity at 10 µM (T98g cells) | also measured |
| --- | --- | --- | --- | --- |
| CC1=C(CCN2C(=O)COc3ccccc32)c2ccccc2C1C (centres unmarked) [TK4] |  |  | 10% |  |
| Cc1c(C(=O)Cn2cnc3ccccc3c2=O)c2ccccc2n1C [TK5] |  |  | 3% |  |
| Cc1c(C(=O)C(F)(F)F)c2ccccc2n1CC(=O)NCc1ccccc1 [TK6] |  |  | 8% |  |
| O=C1CCCc2c1c1ccccc1n2Cc1ccccc1 [TK7] |  |  | 19% |  |
| COCCn1cc(C(=O)N2CCCC(CN(C)C)C2)c2ccccc21 (centres unmarked) [TK9] |  |  | 0% |  |
| Cn1cc(C(=O)N2CCCc3ccccc32)c2ccccc21 [TK10] |  |  | 0% |  |
| COc1ccc2c(c1)c(C(=O)N1CCCC(c3nnc4ccccn34)C1)c(C)n2C (centres unmarked) [TK11] |  |  | 10% |  |
| COc1ccc2c(c1)c(C(O)N1CCCC(c3nnc4ccccn34)C1)c(C)n2C (centres unmarked) [TK12] |  |  | 16% |  |
| Cc1c(C(=O)c2ccccc2)c2ccccc2n1CC(=O)N1CCOCC1 [TK16] |  |  | 3% |  |
| Cc1c(CNN2CCOCC2)nn(C)c1C [TK-1] |  |  | 6% |  |
| CC(=O)c1c(C)n(CCOc2ccccc2)c2ccccc12 [TK-2] | 81% | 3.1 µM |  |  |
| COCCn1c(C)c(C(=O)N2CCC3(CC2)NC(=O)N(C)C3=O)c2ccccc21 [TK-8] | 55% | 886 µM |  |  |
| CC(=O)c1c(C)n(CCCOc2ccccc2)c2ccccc12 [TK-14] | 92% | 40 µM |  |  |
| CC(=O)c1c(C)n(CCOc2cccc3ccccc23)c2ccccc12 [TK-15] | 62% | 45 µM |  |  |
| Cc1ccc(C(=O)c2c(C)n(CCN3CCOCC3)c3ccccc23)c2ccccc12 [TK-18] | 48% | 3 µM |  |  |
| Cc1c(C(=O)c2cccc3ccccc23)c2cccc3c2n1[C@@H](CN1CCOCC1)CO3 [WIN55212-2] | 87% | 1.5 µM |  | excitatory transmission [3]: inhibit; EC50 ([1]; Homo sapiens, range over the three cell lines (FIG. 1), read-out: potency at killing T98g, MDA231 and sknmc cells): 1.5 to 2.9 µM; gradual toxic efficacy across cell lines ([1]; rank order of cell lines): T98g>MDA>sknmc; competition for [3H]-CP55940 binding at CB2 (CB2): competes; competition for [3H]-CP55940 binding at CB1 (CB1): competes; [35S]-GTPγS binding [4]: increase; binding affinity to a protein expressed by NG108-15 cells [2]: nanomolar affinity |
